{"source": "patent US9475841B2", "about": "“Melanoma antigen peptide and uses thereof” (INSERM (INSTITUT NATIONAL DE LA SANTE ET DE LA RECHERCHE …, priority 2012, dated 2016)", "key": {"[1]": {"system": "DQ2-restricted T cell clone 4E2"}, "[2]": {"system": "DQ2-restricted 9C12 T cell clone", "settings": "5 h"}, "[3]": {"system": "DRβ1*1101 restricted T cell clone 1A5", "settings": "5 h"}, "[4]": {"system": "MELOE-1 specific CD4 T cell clones", "assay": "Processing of epitopes by autologous DC loaded with antigen; TNF-α production of T cell clones", "format": "cell-based, human", "description": "FIG. 4: Class II epitopes are naturally processed from MELOE-1 whole antigen. Autologous DC, were loaded (before or after fixation) with MELOE-12-46 (1 μM) or, as a negative control, with Melan-A16-40L peptide (1 μM), and matured. T cell clones were then stimulated with DC at a ratio 1:1, during 5 h in presence of Brefeldin A, then stained with APC-conjugated anti-CD3 mAb, fixed with 4% paraformaldehyde, labeled with PE-conjugated anti-TNF-α mAb and analyzed by flow cytometry. Histograms illustrated the % of TNF-α producing cells among CD3 positive T cells.\nMonocytes were purified from PBMC of healthy donors by a CD14-enrichment kit, according the recommendations of the supplier (Stem Cell, France). Immature dendritic cells (iDC) were generated by culturing monocytes in RPMI supplemented with 20 mg/mL of human albumin, 1000 IU/mL of GM-CSF and 200 IU/mL of IL-4 for 5 days. Then, iDC were pulsed with the whole MELOE-1 (1 μM) protein or the modified Melan-A16-40 A27L as negative control (1 μM) and matured with 20 ng/mL of TNF-α and 50 μg/mL of PolyI:C for 4 hours at 37° C. Finally they were fixed for 1 minute with PBS/0.015% glutaraldehyde. Alternatively, iDC were first matured, fixed and then pulsed with antigens at the same concentration.\nAlternatively, MELOE-1 specific CD4+ T cell clones were stimulated by autologous MELOE-1 loaded and matured DC at a 1:1 ratio. […]"}, "[5]": {"system": "DRβ1*0101 restricted T cell clone 5F9", "assay": "Minimal peptides recognized by CD4 T cell clone (peptide titration, TNF-α production)", "format": "cell-based, human", "settings": "5F9 T cell clone; 13-mer peptides", "description": "FIG. 5: Minimal peptides recognized by MELOE-1 specific CD4 T cell clones. MELOE-1 specific CD4 T cell clones were incubated with various concentrations of the indicated peptides during 5 hours in presence of Brefeldin A. TNF-α production was assessed by intracellular labeling with an anti-TNF-α specific antibody. The core peptide sequence is indicated in bold on each figure panel, and black circles illustrate the best fitting peptide.\nOur T cell clones were reactive against 20-mer peptides that are probably not the exact peptides naturally processed. In order to formally identify the minimal recognized epitopes, we tested shorter peptides derived from each of the MELOE-1 recognized regions, chosen on the basis of the core peptide sequence supposed to be recognized by the T cell clones (indicated in bold on FIG. 5).\nThree shorter peptides were better recognized by the DQ2-restricted 9C12 T cell clone, the shortest one being MELOE-17-19 (13-mer), recognized with an EC50 of 100 nM. The deletion of the two amino acids in C-term strongly reduces T cell clone recognition. […] Nonetheless all of these clones recognized a series of shortened peptides, thus we cannot formally assess that the shortest ones will be the exact peptides naturally presented on class II molecules."}}, "note": "Residues, ends and D or L forms follow the SMILES beside them."}
{"compound": "CC[C@H](C)[C@H](NC(=O)[C@H](CCCNC(=N)N)NC(=O)[C@@H](N)CCC(=O)O)C(=O)N[C@@H](CO)C(=O)N[C@@H](CO)C(=O)N[C@H](C(=O)N[C@@H](CC(C)C)C(=O)N[C@@H](CC(N)=O)C(=O)N[C@@H](CC(=O)O)C(=O)N[C@@H](CCC(=O)O)C(=O)N[C@@H](CS)C(=O)N[C@@H](Cc1c[nH]c2ccccc12)C(=O)N1CCC[C@H]1C(=O)N[C@@H](C)C(=O)O)[C@@H](C)O", "note": "[31-44, ERISSTLNDECWPA] (H-ERISSTLNDECWPA-OH; N-terminus and C-terminus assumed)", "values": [{"measurement": "EC50", "setting": "[1]; 5 h", "value": 100, "unit": "nM"}]}
{"compound": "CC(C)C[C@H](NC(=O)[C@H](Cc1ccccc1)NC(=O)[C@H](CCC(N)=O)NC(=O)[C@H](CCC(=O)O)NC(=O)[C@H](CCCNC(=N)N)NC(=O)[C@H](CO)NC(=O)[C@@H](NC(=O)[C@H](C)NC(=O)[C@H](CCC(=O)O)NC(=O)[C@H](CC(=O)O)NC(=O)[C@@H]1CCCN1)[C@@H](C)O)C(=O)N1CCC[C@H]1C(=O)N[C@@H](CO)C(=O)O", "note": "[MELOE-17-19, PDEATSREQFLPS] (H-PDEATSREQFLPS-OH; N-terminus and C-terminus assumed)", "values": [{"measurement": "EC50", "setting": "[2]", "value": 100, "unit": "nM"}]}
{"compound": "CC(C)C[C@H](NC(=O)[C@H](Cc1ccccc1)NC(=O)[C@@H](N)CCC(N)=O)C(=O)N1CCC[C@H]1C(=O)N[C@@H](CO)C(=O)N[C@@H](CCC(=O)O)C(=O)NCC(=O)N[C@@H](C)C(=O)N[C@@H](C)C(=O)N[C@@H](CS)C(=O)N1CCC[C@H]1C(=O)N1CCC[C@H]1C(=O)N[C@@H](Cc1c[nH]c2ccccc12)C(=O)O", "note": "[MELOE-115-27, QFLPSEGAACPPW] (H-QFLPSEGAACPPW-OH; N-terminus and C-terminus assumed)", "values": [{"measurement": "EC50", "setting": "[3]", "value": 100, "unit": "nM"}]}
{"compound": "MSCVGYPDEATSREQFLPSEGAACPPWHPSERISSTLNDECWPASL [MELOE-1, MELOE-1 whole antigen (46 amino acids)]", "values": [{"measurement": "recognition by specific CD4 T cell clones of DC loaded after fixation", "setting": "[4]; autologous DC loaded after DC fixation", "value": "only a weak recognition"}, {"measurement": "reactivity of the four T cell clones against loaded autologous DC", "setting": "[4]; iDC loaded with 1 μM in serum-free medium, matured, then fixed", "value": "reactive"}]}
{"compound": "RISSTLNDECWPA [32-44]", "values": [{"measurement": "recognition by T cell clone", "setting": "[1]; 4E2 T cell clone, compared with 31-44", "value": "recognized to a lower extent"}]}
{"compound": "SREQFLPSEGAAC [MELOE-112-24]", "values": [{"measurement": "recognition by T cell clone", "setting": "[5]", "value": "optimal shorter peptides"}]}
{"compound": "TSREQFLPSEGAA [MELOE-111-23]", "values": [{"measurement": "recognition by T cell clone", "setting": "[5]", "value": "optimal shorter peptides"}]}
